Values after ≈ are worked out from the molar mass of the structure shown.
Key:
Assay type in all cases: cell-based
[1] = tested on: B. frag 25285; experiment: MIC by agar dilution, QC organism B. frag 25285; conditions: QC B. frag 25285, 48 h anaerobic
[2] = tested on: C. difficile; experiment: MIC by agar dilution (NCCLS M11-A5) on C. difficile strains; conditions: for MIC: Clostridioides difficile; for susceptibility of strains: Strains 80 and 29-5-30
[3] = tested on: B. theta 29741; experiment: MIC by agar dilution, QC organism B. theta 29741; conditions: QC B. theta 29741, 48 h anaerobic
[4] = ATCC43255, Sample 31, QC C. diff ATCC 43255
[5] = Sample 23, C. difficile 11-5-03
[6] = Sample 24, C. difficile 13-5-03
[7] = Sample 25, C. difficile 14-5-03
[8] = Sample 26, C. difficile 16-5-03
[9] = Sample 27, C. difficile 17-5-03
[10] = Sample 28, C. difficile 19-5-03
[11] = Sample 29, C. difficile 22-5-03
[12] = Sample 30, C. difficile 29-5-03

MIC [1] [µg/mL]	MIC [2, 4] [µg/mL]	MIC ([2]; Sample 1, C. difficile 18) [µg/mL]	MIC ([2]; Sample 2, C. difficile 22) [µg/mL]	MIC ([2]; Sample 3, C. difficile 28) [µg/mL]	MIC ([2]; Sample 4, C. difficile 40) [µg/mL]	MIC ([2]; Sample 5, C. difficile 44) [µg/mL]	MIC ([2]; Sample 6, C. difficile 50) [µg/mL]	MIC ([2]; Sample 7, C. difficile 60) [µg/mL]	MIC ([2]; Sample 8, C. difficile 70) [µg/mL]	MIC ([2]; Sample 9, C. difficile 80) [µg/mL]	MIC ([2]; Sample 10, C. difficile 101) [µg/mL]	MIC ([2]; Sample 11, C. difficile 107) [µg/mL]	MIC ([2]; Sample 12, C. difficile 113) [µg/mL]	MIC ([2]; Sample 13, C. difficile 116) [µg/mL]	MIC ([2]; Sample 14, C. difficile 143) [µg/mL]	MIC ([2]; Sample 15, C. difficile 146) [µg/mL]	MIC ([2]; Sample 16, C. difficile 154) [µg/mL]	MIC ([2]; Sample 17, C. difficile 166) [µg/mL]	MIC ([2]; Sample 18, C. difficile 199) [µg/mL]	Structure (SMILES)	further results
1 (≈ 5.84 µM)	0.5 (≈ 2.92 µM)	0.5 (≈ 2.92 µM)	0.5 (≈ 2.92 µM)	0.5 (≈ 2.92 µM)	0.5 (≈ 2.92 µM)	0.5 (≈ 2.92 µM)	0.5 (≈ 2.92 µM)	0.5 (≈ 2.92 µM)	0.25 (≈ 1.46 µM)	0.5 (≈ 2.92 µM)	0.5 (≈ 2.92 µM)	0.5 (≈ 2.92 µM)	0.5 (≈ 2.92 µM)	0.25 (≈ 1.46 µM)	0.5 (≈ 2.92 µM)	0.5 (≈ 2.92 µM)	0.25 (≈ 1.46 µM)	0.5 (≈ 2.92 µM)	0.25 (≈ 1.46 µM)	Cc1ncc([N+](=O)[O-])n1CCO [Metronidazole, metronidazole, reference compound]	MIC ([2]; Sample 19, C. difficile 65C): 0.5 µg/mL (≈ 2.92 µM); MIC ([2]; Sample 20, C. difficile 5-5-03): 0.5 µg/mL (≈ 2.92 µM); MIC ([2]; Sample 21, C. difficile 6-5-03): 0.5 µg/mL (≈ 2.92 µM); MIC ([2]; Sample 22, C. difficile 7-5-03): 0.25 µg/mL (≈ 1.46 µM); MIC [2, 5]: 0.5 µg/mL (≈ 2.92 µM); MIC [2, 6]: 0.5 µg/mL (≈ 2.92 µM); MIC [2, 7]: 0.5 µg/mL (≈ 2.92 µM); MIC [2, 8]: 0.5 µg/mL (≈ 2.92 µM); MIC [2, 9]: 0.25 µg/mL (≈ 1.46 µM); MIC [2, 10]: 0.5 µg/mL (≈ 2.92 µM); MIC [2, 11]: 0.25 µg/mL (≈ 1.46 µM); MIC [2, 12]: 0.5 µg/mL (≈ 2.92 µM); susceptibility of strains [2]: less susceptible; MIC [3]: 2 µg/mL (≈ 11.7 µM)
0.03 (≈ 0.0319 µM)	0.002 (≈ 0.00213 µM)	0.001 (≈ 0.00106 µM)	0.001 (≈ 0.00106 µM)	0.002 (≈ 0.00213 µM)	0.001 (≈ 0.00106 µM)	0.001 (≈ 0.00106 µM)	0.002 (≈ 0.00213 µM)	0.002 (≈ 0.00213 µM)	0.001 (≈ 0.00106 µM)	> 20.5	0.004 (≈ 0.00425 µM)	0.001 (≈ 0.00106 µM)	0.004 (≈ 0.00425 µM)	0.002 (≈ 0.00213 µM)	≤ 0.0005	0.001 (≈ 0.00106 µM)	≤ 0.0005	0.001 (≈ 0.00106 µM)	≤ 0.0005	CO[C@H]1/C=C/O[C@@]2(C)Oc3c(C)c(O)c4c(=O)c(c5oc6cc(N7CCN(CC(C)C)CC7)cc(O)c6nc-5c4c3C2=O)NC(=O)/C(C)=C\C=C\[C@H](C)[C@H](O)[C@@H](C)[C@@H](O)[C@@H](C)[C@H](OC(C)=O)[C@@H]1C [ABI1648, 3′-hydroxy-5′-(4-isobutyl-1-piperazinyl) benzoxazinorifamycin]	MIC ([2]; Sample 19, C. difficile 65C): 0.002 µg/mL (≈ 0.00213 µM); MIC ([2]; Sample 20, C. difficile 5-5-03): 0.002 µg/mL (≈ 0.00213 µM); MIC ([2]; Sample 21, C. difficile 6-5-03): 0.002 µg/mL (≈ 0.00213 µM); MIC ([2]; Sample 22, C. difficile 7-5-03): 0.002 µg/mL (≈ 0.00213 µM); MIC [2, 5]: 0.001 µg/mL (≈ 0.00106 µM); MIC [2, 6]: ≤ 0.0005 µg/mL; MIC [2, 7]: 0.001 µg/mL (≈ 0.00106 µM); MIC [2, 8]: 0.008 µg/mL (≈ 0.0085 µM); MIC [2, 9]: 0.002 µg/mL (≈ 0.00213 µM); MIC [2, 10]: 0.002 µg/mL (≈ 0.00213 µM); MIC [2, 11]: 0.001 µg/mL (≈ 0.00106 µM); MIC [2, 12]: > 0.5 µg/mL; susceptibility of strains [2]: less susceptible; effectiveness compared with metronidazole ([2]; against almost all 31 strains of C. difficile): much more effective than metronidazole; MIC [3]: 0.03 µg/mL (≈ 0.0319 µM)

— patent US20040106590A1, “Methods and reagents for treating infections of clostridium difficile and diseases associated therewith” (priority 2002, published 2004)
